Measurements as given in publication PMC9503608, “An Insight into Symmetrical Cyanine Dyes as Promising Selective Antiproliferative Agents in Caco-2 Colorectal Cancer Cells” (Molecules, 2022).

Assays:
Caco-2 cells = test: Cell cycle distribution by propidium iodide staining and flow cytometry; assay type: cell-based, human; conditions: dye 12 and 5-FU 10 µM 72 h, sorbitol 600 mM 24 h, versus untreated cells
Protocol: The apoptosis occurrence and influence of the dye 12 on the cell cycle were evaluated using propidium iodide (PI) staining and flow cytometry, as described by Riccardi and Nicolleti. After the near confluency of the culture, trypsinisation, and counting, Caco-2 cells were seeded (2 mL, 3 × 10^4 cells/mL) in 6-well plates. After 48 h of adherence, the cells were treated with the test solutions (3 mL and 5 mL for negative control) and incubated for 72 h. Untreated cells were used as the negative control, and sorbitol and 5-FU [56] were used as positive controls for the apoptosis and cell cycle distribution studies, respectively. After incubation, the supernatant was collected and the cells were washed with PBS and combined with the cells harvested using the trypsin treatment. This cell suspension was maintained on ice and centrifugated, and then the pellet was resuspended in 0.5 mL of PBS. The cells were fixed by adding 4.5 mL of 70% ethanol cooled at −20 °C and were stored at the same temperature. For the cytometry analysis, PBS was added to the fixed cells before centrifugation, and then the ethanolic supernatant was removed. The pellet was resuspended in 0.5 mL of PBS and 0.5 mL of DNA extraction (192 mL of 0.2 M sodium phosphate and 8 mL of […], pH 7.8) was added. After incubation for 5 min, the cells were centrifuged, the supernatant was removed, and the pellet resuspended in 0.3 mL of staining solution (20 µg/mL of PI and 0.2 mg/mL of DNase-free RNase in PBS). Using a FACSCalibur flow cytometer and the 488 nm laser line, a minimum of 20,000 events were recorded. Acquisition and apoptosis analysis was performed using BD CellQuestTM Pro 4.0.2 Software. Cell cycle analysis was performed with ModFit LT 5.0.9 software. To exclude debris and necrotic cells, events with a lower diameter (forward scatter; FCS) and reduced PI fluorescence (FL3) than the hypodiploid apoptotic cells were eliminated. Two independent experiments were performed.

[1] = Photostability evaluation in PBS (absorbance decay at 376 nm); assay type: physicochemical; conditions: 10 µM in PBS
Protocol: The photostability of the dye 12 was evaluated using a concentration of 10 µM prepared from the dilution of 10 mM DMSO stock solution in PBS. In a 96-well plate, 100 µL of dye solution was added, irradiated in the same way as that previously described for photocytotoxicity evaluation for 120 min, and spectrophotometric readings were taken over this period at the dye 12’s maximum absorption wavelength (376 nm). Two independent experiments were performed in quadruplicate. The absorbance was normalised to simplify the analysis.

[2] = test system: MCF-7 breast adenocarcinoma cell line; test: MTT cell viability assay, MCF-7; assay type: cell-based, human; conditions: Homo sapiens
Protocol: (§1) Caco-2, MCF-7, PC-3, and NHDF cell lines were obtained from the American Type Culture Collection (ATCC) and maintained in 75 cm^2 culture flasks in a humidified atmosphere at 37 °C with 5% carbon dioxide using a LEEC Culture Safe Precision CO2 Incubator. The culture media was renewed every two to three days. The NHDF cell line was cultured in Roswell Park Memorial Institute (RPMI) medium supplemented with 10% of inactivated fetal bovine serum (FBS), 2 mM of L-glutamine, 10 mM of 4-(2-hydroxyethyl)-1-piperazineethanesulfonic acid (HEPES), 1 mM of sodium pyruvate, and 1% of antibiotic/antimycotic mixture (Ab; 10,000 U/mL of penicillin G, […] of streptomycin, and 25 µg/mL of amphotericin B). The PC-3 cell line was also cultured in RPMI 1640 medium supplemented with 10% inactivated FBS and 1% of an antibiotic mixture (Sp; 10,000 U/mL of penicillin G and […] of streptomycin). The Caco-2 and MCF-7 cell lines were grown in Dulbecco’s Modified Eagle Medium (DMEM). Caco-2 was supplemented with 20% of inactivated FBS and 1% of Sp. On the other hand, the MCF-7 medium was complemented with 10% of inactivated FBS and 1% of Ab. All manipulations were performed in a Labculture Class II A2 Biological Safety Cabinet.
(§2) After the near confluency of cultures, cells were detached with a solution of 0.125 g/L trypsin and 0.02 g/L ethylenediaminetetracetic acid (EDTA), counted using the trypan blue method, resuspended, and seeded in 96-well culture plates (100 µL, 2 × 10^4 cells/mL). Following 48 h of adherence, cells were treated with the test solutions and incubated for 72 h. This incubation, as well as the solution manipulations, were performed in an environment protected from light. After the incubation, the medium was replaced with a fresh incomplete culture medium (without FBS and Ab or Sp) and MTT solution (5 mg/mL in phosphate buffer saline (PBS)). After additional incubation for 4 h, the MTT medium was removed, formazan crystals were dissolved in DMSO, and the optical density of each well was measured at 570 nm using a microplate spectrophotometer Bio-Rad xMark. Untreated cells were used as a negative control and 5-FU as the positive control. The results were expressed as the relative cell proliferation relative to the negative control cells. […] To determine the IC50 values, Caco-2, MCF-7, PC-3, and NHDF cells were exposed to increasing concentrations between 0.001 and 100 μM.

[3] = test system: normal human dermal fibroblasts (NHDF); test: MTT cell viability assay, NHDF; assay type: cell-based; conditions: Homo sapiens, NHDF, 72 h, 72 h of incubation, MTT, protected from light
Protocol: as §1, §2

[4] = MTT cell viability assay, NHDF; assay type: cell-based, human; conditions: human, normal human dermal fibroblasts (NHDF), single concentration of 10 µM, 72 h, mean ± SD; read-out: cell viability percentage in relation with control, NHDF
Protocol: as §1, §2

decomposition (decrease in absorbance at 376 nm) ([1]; after 30 min of irradiation): approximately 4% | decomposition (decrease in absorbance at 376 nm) ([1]; after 120 min of irradiation): ~5% | IC50 ([2]; MCF7, 72 h of incubation, MTT, protected from light): 4.57 µM
Compound: CN1C(=Cc2oc3ccccc3[n+]2C)Oc2ccccc21.Cc1ccc(S(=O)(=O)[O-])cc1 [Dye 12, 3-Methyl-2-((3-methylbenzo[d]oxazol-2(3H)-ylidene)methyl)benzo[d]oxazol-3-ium 4-methylbenzenesulfonate]
effect on cell cycle distribution (Caco-2 cells): notorious increase in the number of cells in the G0/G1 phase | viability at 10 µM ([2]; MCF7, 72 h, single concentration of 10 µM, 72 h, mean ± SD, read-out: cell viability percentage in relation with control, MCF-7): 10.8 ± 1.98% | IC50 [3]: 14 µM | viability at 72 h, 10 µM [4]: 41 ± 0.82%
